Target: T1, β-secretase(BACE) (Homo sapiens, UniProt P56817)
T1 construct: purchased Panvera
Experiment: BACE FS1% Inhibition Assay
Type: biochemical
Settings: FS1 substrate
Method: BACE FS1% Inhibition Assay The following reagents were used in this assay: sodium acetate, PEG8000 (Sigma), DMSO, HEPES, FS1 substrate [[…]] […] The FS1-substrate stock solution was prepared in DMSO as a 10 mg/mL solution. The FS1-substrate working solution was prepared by diluting the 10 mg/mL stock solution with substrate assay buffer to a final concentration of 300 μg/mL. The β-secretase (BACE) working solution was prepared by diluting a 0.83 mg/mL BACE stock solution with enzyme assay buffer to a final concentration of 4 μg/mL. Test compounds were dissolved in DMSO to 10 mM. […] The screening procedure for this assay was as follows: 15 μL of BACE working solution was pipetted into each well of a 96-well plate. To each well was then pipetted 2 μL of test compound at the selected concentration. Test compound and BACE were then mixed with a pipettor and incubated for 20 min at room temperature. To each well was then added 10 μL of the FS1 substrate working solution. The plates were then incubated for 1 hour at room temperature. […] The procedure for the blank was as follows. 15 μL of assay buffer was pipetted into each well to be used as a blank control. To each well was then added 2 μL of vehicle and 10 μL of FS1-substrate working solution. The plates were then incubated for 1 hour at room temperature. […] The procedure for the positive control was as follows: 15 μL of BACE working solution was pipetted into each well to be used as a positive control. To each well was then pipetted 2 μL of vehicle. Vehicle and BACE were then mixed with a pipettor and incubated for 20 min at room temperature. To each well was then added 10 μL of the FS1 substrate working solution. The plates were then incubated for 1 hour at room temperature. […] For test compounds, % inhibition was determined at each concentration as follows: [formula]

T1 sequence (P56817 46-501): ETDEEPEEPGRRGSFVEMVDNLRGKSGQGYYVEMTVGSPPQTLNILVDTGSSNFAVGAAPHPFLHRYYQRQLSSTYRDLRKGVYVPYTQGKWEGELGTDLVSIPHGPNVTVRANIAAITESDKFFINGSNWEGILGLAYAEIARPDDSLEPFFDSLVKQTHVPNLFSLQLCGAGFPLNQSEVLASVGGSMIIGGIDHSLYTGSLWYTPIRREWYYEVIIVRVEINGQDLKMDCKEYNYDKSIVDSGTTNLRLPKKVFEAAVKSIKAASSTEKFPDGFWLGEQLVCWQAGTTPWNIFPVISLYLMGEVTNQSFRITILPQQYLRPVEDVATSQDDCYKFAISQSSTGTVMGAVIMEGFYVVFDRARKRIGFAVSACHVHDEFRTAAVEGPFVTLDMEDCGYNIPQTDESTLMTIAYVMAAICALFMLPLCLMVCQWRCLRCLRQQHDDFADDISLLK

% Inhibition (FS) 0.3 μM (0.3 μM test compound) [%]	% Inhibition (FS) 1 μM (1 μM test compound) [%]	% Inhibition (FS) 3 μM (3 μM test compound) [%]	% Inhibition (FS) 3 μM (3 μM test compound, 3 µM) [%]	% Inhibition (FS) 10 μM (10 μM test compound, 10 µM) [%]	% Inhibition (FS) (0.3 μM test compound) [%]	% Inhibition (FS) (1 μM test compound) [%]	% Inhibition (FS) (3 μM test compound) [%]	SMILES
<30	<30	<30						NC1=Nc2ccc(-c3ccncc3)cc2CN1CCNC(=O)C1CCCCC1 [Compound 576]
			48	91				CN(C(=O)c1ccc2c(c1)C(N1Cc3cc(Oc4ccccc4)ccc3N=C1N)c1ccccc1-2)C1CCCCC1 (centres unmarked) [Compound 118]
<30	<30	<30						CN(C(=O)c1ccccc1CN1Cc2cc(Oc3ccccc3)ccc2N=C1N)C1CCCCC1 [Compound 463]
<30	<30	58						CCCC(CCC)C(=O)N1CCC(N2Cc3cc(Oc4ccccc4)ccc3N=C2N)CC1 [Compound 523]
<30	<30	<30						COc1ccccc1-c1ccc2c(c1)CN(CCNC(=O)CN)C(N)=N2 [Compound 490]
<30	<30	55						COc1ccc(Sc2ccc3c(c2)CN(Cc2cccc(C(=O)N(C)C4CCCCC4)c2)C(N)=N3)cc1OC [Compound 411]
<30	<30	<30						COc1ccc(C)cc1Oc1ccc2c(c1)CN(Cc1cccc(C(=O)N(C)C3CCCCC3)c1)C(N)=N2 [Compound 467]
					67	100	103	CC(CC(=O)NCCN1Cc2cc(-c3ccccc3F)ccc2N=C1N)C(F)(F)F (centres unmarked) [Compound 681]
					<30	44	89	CN(C(=O)CCC(C1CCCCC1)N1Cc2cc(Oc3ccccc3)ccc2N=C1N)C1CCC(C(=O)OCc2ccccc2)CC1 (centres unmarked) [Compound 760]
<30	<30	<30						NC1=Nc2ccc(Oc3ccccc3)cc2CN1C(CC(=O)NC1CCCCC1)c1ccccc1 (centres unmarked) [Compound 299]
<30	34	95						Cc1ccc(Sc2ccc3c(c2)CN(Cc2cccc(C(=O)N(C)C4CCCCC4)c2)C(N)=N3)cc1C [Compound 408]
<30	<30	<30						CCCCC(CC)CN(CC(CC)CCCC)C(=O)c1cccc(CN2Cc3cc(Oc4ccccc4)ccc3N=C2N)c1 (centres unmarked) [Compound 198]
<30	37	50						CN(C(=O)c1cccc(CN2Cc3cc(Nc4ccc5ccccc5c4)ccc3N=C2N)c1)C1CCCCC1 [Compound 436]
					38	97	123	COC(=O)C1CCCC(N(C)C(=O)CCC(C2CCCCC2)N2Cc3cc(Oc4ccccc4)ccc3N=C2N)C1 (mixture of isomers) [Compound 777]
<30	<30	<30						CCCC=Cc1ccc2c(c1)CN(CCNC(=O)C(C)(C)C)C(N)=N2 [Compound 574]
					<30	<30	64	COc1ccccc1-c1ccc2c(c1)CN(CCNC(=O)C1CCC(C(F)(F)F)CC1)C(N)=N2 (centres unmarked) [Compound 698]
<30	<30	48						CN(C(=O)c1cccc(CN2Cc3cc(-c4ccccc4OCc4ccccc4)ccc3N=C2N)c1)C1CCCCC1 [Compound 327]
<30	<30	<30						NC1=Nc2ccc(Oc3ccccc3)cc2CN1CCNC(=O)c1ccc(-c2ccccc2)cc1 [Compound 195]
<30	<30	<30						NC1=Nc2ccc(Oc3ccccc3)cc2CN1C(CNC(=O)C1CCCCC1)Cc1ccc(O)cc1 (centres unmarked) [Compound 614]
					<30	<30	<30	NC1=Nc2ccc(C3=CCCC3)cc2CN1CCNC(=O)C1CCC(C(F)(F)F)CC1 (centres unmarked) [Compound 707]
<30	58	101						CSc1ccc(Nc2ccc3c(c2)CN(Cc2cccc(C(=O)N(C)C4CCCCC4)c2)C(N)=N3)cc1 [Compound 442]

% Inhibition (FS) 0.3 μM (0.3 μM test compound) [%]	% Inhibition (FS) 1 μM (1 μM test compound) [%]	% Inhibition (FS) 3 μM (3 μM test compound) [%]	% Inhibition (FS) 3 μM (3 μM test compound, 3 µM) [%]	% Inhibition (FS) 10 μM (10 μM test compound, 10 µM) [%]	% Inhibition (FS) (0.3 μM test compound) [%]	% Inhibition (FS) (1 μM test compound) [%]	% Inhibition (FS) (3 μM test compound) [%]	SMILES
<30	37	49						CN(C(=O)c1cccc(CN2Cc3cc(Oc4cccc(Oc5ccccc5)c4)ccc3N=C2N)c1)C1CCCCC1 [Compound 236]
<30	<30	<30						NC1=Nc2ccc(Oc3ccccc3)cc2CN1Cc1cccc(CNC(=O)C(F)(F)F)c1 [Compound 307]
36	31	<30						CC(C)CCC(=O)N1CCCC(N2Cc3cc(Oc4ccccc4)ccc3N=C2N)C1 (centres unmarked) [Compound 613]
<30	34	<30						CN(C(=O)c1cccc(CN2Cc3cc(C=Cc4ccccc4)ccc3N=C2N)c1)C1CCCCC1 [Compound 266]
					36	<30	41	CC(C)(C)C(=O)NCCN1Cc2cc(-c3cnc4ccccc4c3)ccc2N=C1N [Compound 674]
					<30	36	81	NC1=Nc2ccc(-c3ccccc3F)cc2CN1CCNC(=O)C1CCC(C(F)(F)F)CC1 (centres unmarked) [Compound 688]
					69	97	109	COC(=O)C(COCc1ccccc1)N(C)C(=O)CCC(C1CCCCC1)N1Cc2cc(Oc3ccccc3)ccc2N=C1N (centres unmarked) [Compound 780]
					<30	<30	32	CCCCC(CC)C(=O)NCCN1Cc2cc(-c3ccc4ccccc4c3)ccc2N=C1N (centres unmarked) [Compound 669]
<30	<30	<30						CC(C)Oc1ccc2c(c1)CN(Cc1cccc(C(=O)N(C)C3CCCCC3)c1)C(N)=N2 [Compound 519]
<30	<30	37						CC(C)(C)OC(=O)N1CCCCC(N2Cc3cc(Oc4ccccc4)ccc3N=C2N)C1 (centres unmarked) [Compound 510]
<30	<30	38						CN(C(=O)c1cccc(CN2Cc3cc(Nc4ccc(C5CCCCC5)cc4)ccc3N=C2N)c1)C1CCCCC1 [Compound 437]
					<30	56	97	CNC(=O)C1CCC(N(C)C(=O)CCC(C2CCCCC2)N2Cc3cc(Oc4ccccc4)ccc3N=C2N)CC1 (centres unmarked) [Compound 765]
					8	35	89	CN(C(=O)CC[C@@H](C1CCCCC1)N1Cc2ccc(Oc3ccccc3)cc2N=C1N)C1CCCCC1 [Compound 754]
<30	<30	<30						CC(C)(C)C(=O)NCCN1Cc2cc(-c3ccncc3)ccc2N=C1N [Compound 573]
43	69	100						CCCC(=O)NCCN1Cc2cc(-c3ccccc3C)ccc2N=C1N [Compound 659]
101	114	122						CCC[C@H](CNC(=O)CCC(C)C)N1Cc2cc(Oc3ccccc3)ccc2N=C1N [Compound 603]
<30	<30	<30						CC1CCC(NC(=O)c2cccc(CN3Cc4cc(Oc5ccccc5)ccc4N=C3N)c2)CC1 (centres unmarked) [Compound 213]
<30	<30	<30						NC1=Nc2ccc(Oc3ccccc3)cc2CN1C1CCCCN(C(=O)C2CCCCC2)C1 (centres unmarked) [Compound 551]
<30	<30	<30						NC1=Nc2ccc(Oc3ccccc3)cc2CN1Cc1cccc(C(=O)NCCc2ccc(S(N)(=O)=O)cc2)c1 [Compound 188]
<30	<30	77						NC1=Nc2ccc(Oc3ccccc3)cc2CN1C(CC(=O)NC1CCCCC1)C1CCCCC1 (centres unmarked) [Compound 300]
<30	<30	66						NC1=Nc2ccc(Oc3c(F)cccc3F)cc2CN1CCC(=O)NC1C2CC3CC(C2)CC1C3 (centres unmarked) [Compound 529]

Source: patent US8383637B2, “2-amino-quinazoline derivatives useful as inhibitors of β-secretase (BACE)” (Jansssen Pharmaceutica N.V., priority 2004, dated 2013)
